Structures can show the parent of a compound that is named as a salt.
How the values were obtained:
[1] = tested on: extracellular 5-HT in nucleus accumbens; type: in vivo, rat; details: 6 mg/kg i.p.; for extracellular 5-HT after the first dose: first of 4 doses, nucleus accumbens dialysate; for persistent elevation of extracellular 5-HT for the duration of sampling: 4 doses every 2 h, 8 h sampling, % of basal
[2] = tested on: extracellular dopamine in nucleus accumbens; assay: In vivo microdialysis in rat nucleus accumbens, dialysate dopamine; details: 6 mg/kg i.p., 4 doses; not different from saline in post hoc tests
[3] = tested on: [3H]dopamine release, rat caudate synaptosomes; assay: In vitro [3H]dopamine release from rat caudate synaptosomes; type: biochemical; details: tested at concentrations up to 10 μM (data not shown)
[4] = target: hSERT (Homo sapiens, UniProt P31645); assay: cell-based; type: cell-based; details: for concentration at which maximal current was measured: bell-shaped concentration-response curve; for inwardly-directed current compared to 5-HT-induced current: raw current traces, reference 10 μM 5-HT
[5] = target: SERT (Rattus norvegicus, UniProt P31652); assay: In vitro [3H]5-HT release from rat brain synaptosomes; type: biochemical
Sequence of SERT (P31652 whole entry): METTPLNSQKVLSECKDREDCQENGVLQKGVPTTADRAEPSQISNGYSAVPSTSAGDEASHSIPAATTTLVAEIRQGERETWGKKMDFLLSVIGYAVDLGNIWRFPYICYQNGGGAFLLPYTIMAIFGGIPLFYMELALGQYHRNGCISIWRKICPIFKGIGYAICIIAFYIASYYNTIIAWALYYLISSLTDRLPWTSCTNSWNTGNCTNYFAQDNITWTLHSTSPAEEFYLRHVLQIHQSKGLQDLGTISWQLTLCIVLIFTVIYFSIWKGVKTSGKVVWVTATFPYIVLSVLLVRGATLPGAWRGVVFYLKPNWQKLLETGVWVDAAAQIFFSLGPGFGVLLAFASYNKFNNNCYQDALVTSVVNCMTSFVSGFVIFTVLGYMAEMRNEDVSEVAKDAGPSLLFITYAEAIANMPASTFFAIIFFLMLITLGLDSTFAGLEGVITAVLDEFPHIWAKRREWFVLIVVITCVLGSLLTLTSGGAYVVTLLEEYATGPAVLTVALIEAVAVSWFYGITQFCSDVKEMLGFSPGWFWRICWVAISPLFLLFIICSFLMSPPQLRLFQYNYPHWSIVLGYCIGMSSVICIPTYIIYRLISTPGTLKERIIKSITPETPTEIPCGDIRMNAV

Sequence of hSERT (P31645 whole entry): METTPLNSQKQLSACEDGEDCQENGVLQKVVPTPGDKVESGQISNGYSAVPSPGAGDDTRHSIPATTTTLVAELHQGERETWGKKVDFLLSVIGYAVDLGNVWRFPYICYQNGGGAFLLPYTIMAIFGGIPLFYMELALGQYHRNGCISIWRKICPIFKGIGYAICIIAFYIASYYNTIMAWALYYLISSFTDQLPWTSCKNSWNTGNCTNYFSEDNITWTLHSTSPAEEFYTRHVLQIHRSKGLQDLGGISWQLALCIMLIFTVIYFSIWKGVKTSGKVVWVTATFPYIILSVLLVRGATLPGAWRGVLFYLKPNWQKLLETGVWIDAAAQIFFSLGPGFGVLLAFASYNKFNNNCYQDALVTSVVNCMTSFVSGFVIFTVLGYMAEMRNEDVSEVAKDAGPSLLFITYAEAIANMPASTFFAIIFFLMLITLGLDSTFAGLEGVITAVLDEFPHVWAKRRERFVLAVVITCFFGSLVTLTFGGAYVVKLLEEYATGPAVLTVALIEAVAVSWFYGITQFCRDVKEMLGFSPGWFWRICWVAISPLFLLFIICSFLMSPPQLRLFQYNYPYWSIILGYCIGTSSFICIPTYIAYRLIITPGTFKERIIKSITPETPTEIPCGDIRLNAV

| Compound | extracellular 5-HT after the first dose [1] | dialysate dopamine [2] | releasing [3H]dopamine [3] | EC50 [4] | concentration at which maximal current was measured ([4]; hSERT-expressing oocytes) | inwardly-directed current compared to 5-HT-induced current [4] | persistent elevation of extracellular 5-HT for the duration of sampling [1] | Emax of 5-HT release [5] | current magnitude relative to mCPP, TFMPP or MTA ([4]; maximal currents, hSERT-expressing oocytes) |
| --- | --- | --- | --- | --- | --- | --- | --- | --- | --- |
| Cl.FC(F)(F)c1cccc(N2CCNCC2)c1 [TFMPP, 1-(3-trifluoromethylphenyl)piperazine hydrochloride] | about 1400 % of basal | 80 % of basal | inactive | 2430 nM | 3 µM | about half the 5-HT-induced current | – | – | – |
| CCNC(C)Cc1cccc(C(F)(F)F)c1 (racemic) [fenfluramine, (±)-N-ethyl-1-[3-(trifluoromethyl)phenyl]propan-2-amine hydrochloride] | ~1200 % of basal | about 150 % of basal | – | – | – | – | 500-800% | – | – |
| CCN[C@@H](C)Cc1cccc(C(F)(F)F)c1 [d-fenfluramine, (+)-N-ethyl-1-[3-(trifluoromethyl)phenyl]propan-2-amine hydrochloride] | ~1200 % of basal | – | inactive | – | – | – | – | – | – |
| Cl.Cl.Clc1cccc(N2CCNCC2)c1 [mCPP, 1-(3-Chlorophenyl)piperazine dihydrochloride] | about 1000 % of basal | 150 % of basal | inactive | 1940 nM | 3 µM | about half the 5-HT-induced current | about 500% | – | – |
| CC(N)Cc1cccc(C(F)(F)F)c1.Cl (single isomer, unassigned; (+)) [d-norfenfluramine, (+)-1-[3-(trifluoromethyl)phenyl]propan-2-amine hydrochloride] | – | – | – | – | 100 µM | almost as high as the 5-HT-induced current | – | 100% | up to 2 times |
| CSc1ccc(CC(C)N)cc1.CSc1ccc(C[C@@H](C)N)cc1 [MTA, 4-Methylthioamphetamine ((2R)-1-[4-(methylsulfanyl)phenyl]propan-2-amine)] | – | – | – | – | 3 µM | comparably small current | – | – | – |
